{"source": "ChEMBL document CHEMBL1145413", "about": "“Dehydroxychlorofusarielin B, an antibacterial polyoxygenated decalin derivative from the marine-derived fungus Aspergillus sp” (2007)", "assay_type_in_all_cases": "functional", "key": {"[1]": {"tested_on": "Staphylococcus aureus", "assay": "Antibacterial activity against methicillin-resistant Staphylococcus aureus after 18 hrs by dilution method"}, "[2]": {"tested_on": "Staphylococcus aureus", "assay": "Antibacterial activity against multidrug-resistant Staphylococcus aureus after 18 hrs by dilution method"}, "[3]": {"tested_on": "Staphylococcus aureus", "assay": "Antibacterial activity against Staphylococcus aureus after 18 hrs by dilution method"}}, "data": [{"smiles": "C/C=C(\\C)[C@H]1[C@@H](/C=C/C=C(\\C)[C@@H](O)[C@@H](C)CO)[C@@H]2C[C@@H](O)[C@](C)(O)C[C@H]2[C@@H]2O[C@@]21C", "note": "[FUSARIELIN B]", "values": [{"measurement": "MIC", "setting": "[1]", "value": 62.5, "unit": "mg/L"}, {"measurement": "MIC", "setting": "[2]", "value": 62.5, "unit": "mg/L"}, {"measurement": "MIC", "setting": "[3]", "value": 62.5, "unit": "mg/L"}]}, {"smiles": "C/C=C(\\C)[C@H]1[C@@H](/C=C/C=C(\\C)[C@@H](O)[C@@H](C)CO)[C@@H]2C[C@@H](Cl)[C@](C)(O)C[C@H]2[C@@H]2O[C@@]21C", "note": "[DEHYDROXYCHLOROFUSARIELIN B]", "values": [{"measurement": "MIC", "setting": "[1]", "value": 62.5, "unit": "mg/L"}, {"measurement": "MIC", "setting": "[2]", "value": 62.5, "unit": "mg/L"}, {"measurement": "MIC", "setting": "[3]", "value": 62.5, "unit": "mg/L"}]}, {"smiles": "C/C=C(\\C)[C@H]1[C@@H](/C=C/C=C(\\C)[C@@H](O)[C@@H](C)CO)[C@@H]2C[C@@H]3O[C@]3(C)C[C@H]2[C@@H]2O[C@@]21C", "note": "[FUSARIELIN A]", "values": [{"measurement": "MIC", "setting": "[1]", "value": 32.5, "unit": "mg/L"}, {"measurement": "MIC", "setting": "[2]", "value": 62.5, "unit": "mg/L"}, {"measurement": "MIC", "setting": "[3]", "value": 32.5, "unit": "mg/L"}]}]}
